Test results published in US4672063A, “Antiallergic 5-alkyl-1-phenyl-2-piperazinoalkylpyrazolin-3-one compounds” (Kali-Chemie Pharma GmbH, priority 1984, dated 1987).

Key:
[1] = tested on: carrageenin edema of the paw; test: Inhibition of carrageenin paw edema in the rat; format: in vivo, rat (Wistar); conditions: po, 100 mg/kg p.o., 3 hours after irritant, read-out: % Inhibition of carageenin paw edema in the rat
Method: Description of the test method to determine the inhibiting effect on the carrageenin edema of the paw in the rats according to the method of Winter et al (Proc. Soc. Exp. Biol. Med. 111 (1962) 544-547).
Male Wistar rates with a body weight of approximately 120 to 140 g are used. A dose of 100 mg/kg of the test substance suspended in a volume of 0.5 ml per 100 g body weight of a 1% methyl cellulose solution Tylose®, American Hoechst Corp., Somerville, NJ) is administered per os.
Only the Tylose® solution is administered to a control group. One hour later, to initiate the inflammation, 0.1 ml of a 1% suspension of carageenin (Satiagum® E) in an isotonic solution of sodium chloride are administered as an irritant by intraplantar injection into the right rear paw. An identical volume of isotonic sodium chloride solution is injected into the left rear paw. Both before and also 3 hours after the administration of the irritant, the volume of the individual rat paws is measured plethysmometrically and the volume of swelling of the paw after administration of carrageenin is determined compared with the paw which was only treated with sodium chloride solution. The inhibition of edema formation brought about by the test substances in the treated animals is indicated in percentage compared with the animals of the untreated control group.

[2] = tested on: passive cutaneous anaphylaxis; test: Inhibition of passive cutaneous anaphylaxis (PCA) in the rat, test substance p.o.; format: in vivo, rat (Sprague-Dawley); conditions: po, 50% reduction in dye concentration vs control, read-out: ED50 inhibiting effect, passive cutaneous anaphylaxy
Method: (§1) 2. Determining the inhibition of passive cutaneous anaphylaxis (PCA) and the inhibition of anaphylactoid cutaneous reactions induced by histamine and by serotonin.
For the preparation of an antiovalbumin serum, rich in IgE, which is used in the test, according to the method of Lehrer et al (J. Immunol. 116, (1976) 178-182) and Pauwels et al (Ann. Immunol. 230C., (1979), 49-58), Sprague-Dawley rats are sensitized by i.p. injection of 1 mg ovalbumin and 1 ml Bordetella pertussis suspension (vaxicoq, Merieux 3×10^10 organisms/ml). After 20 days the animals are given an injection of 10 mg ovalbumin in the same way, but without any additive. After a further 4 days, blood is removed from the animals and the blood is centrifuged. The antiserum thus obtained is stored at -20° C. and adjusted according to the method of Goose et al (Immunology 16 (1968) 749-760).
(§2) The determination of the inhibition of passive cutaneous anaphylaxis and the anaphylactoid cutaneous reactions induced by histamine and by serotonin, are carried out, as set forth below, according to the method of Martin and Baggiolini (Naunyn-Schmeiedeberg's Archives of Pharmacology 316 (1981) 186-189).
(§3) For passive sensitizing against ovalbumin, male Sprague-Dawley rates (body weight 150 to 165 g) are injected intradermally on a shaved part of the back with 0.05 ml of a 1:2.5 dilution of antiovalbumin serum, rich in IgE, in physiological sodium chloride solution.
(§4) 24 hours after the sensitizing, solutions of the test substances are administered orally to the rats. For comparison, a control group receives only the solvent.
(§5) Immediately thereafter 1.25 mg (-~8 mg/kg) ovalbumin to trigger the anaphylactic reaction, and 4 mg (-~26.4 mg/kg) of a blue dye dissolved in 0.5 ml phosphate-buffered physiological sodium chloride solution are administered i.v. to the animals.
(§6) After 30 minutes the animals are killed, the skin is removed and in the individual blue patches the quantity of dye contained therein is determined separately. According to the method of Mordelet-Danbrine et al (Therapie 29 (1974) 851-862) the dye is extracted from the individual patches in each case with 2.5 ml dimethylformamide at a temperature of 37° C. for 4 days and the quantity of dye obtained in each case in the extraction solution is determined by spectrophotometric measurement. The doses of the test substances which cause a 50% reduction in the dye concentration compared with the control group are calculated as ED50 values.

[3] = tested on: peritonal mast cells of rats; test: In vitro inhibition of anaphylactically caused histamine release from peritonal mast cells of rats; format: cell-based, rat (Sprague-Dawley); conditions: Rattus norvegicus, Mast cell; ovalbumin trigger, 1 minute preincubation at 37° C.; read-out: EC50 in vitro inhibiting effect with respect to anaphylactically caused histamine release from mast cells of the rat
Method: 3. Determining the inhibiting effect in vitro on the release of histamine, caused anaphylactically, from peritonal mast cells of rats.
In order to obtain the peritonal mast cells, Sprague-Dawley rats are killed by inhalation of ether and immediately after cessation of breathing has occurred, 15 ml of a cold solution of 1 mg/ml human serum albumin in phosphate-buffered sodium chloride solution are injected into the abdominal cavity. The peritonal fluid is then removed and the mast cells are separated therefrom by centrifuging and are suspended in phosphate-buffered sodium chloride solution, whereafter the suspension is adjusted to a mast cell concentration of 5×10^5 per ml.
The mast cell suspension, divided up into samples each of 100 μl, is introduced into test-tubes and each sample, for passive sensitizing, is mixed with 100 μl of a 1:10 dilution of IgE-rich antiovalbumin serum in physiological sodium chloride solution (prepared according to the method described above) and is incubated for 30 minutes at a temperature of 37° C. (water bath). For the removal of unbonded IgE, the mast cells are then washed with 2 ml phosphate-buffered sodium chloride solution, centrifuged, and the supernatant fluid is discarded. Then the mast cells are incubated for 1 minute at 37° C. with 200 μl of a solution of the test substance in phosphate-buffered sodium chloride solution. A control group is only incubated with the same quantity of phosphate-buffered sodium chloride solution which is free of test substance.
After an incubation period of 3 minutes at 37° C., the reaction is stopped by rapid cooling in an ice bath. Then centrifuging takes place, the supernatant fluid is decanted and the histamine content therein is determined directly, without further extraction, spectrofluorimetrically according to the method of Shore (J. Pharmac. Exp. Ther. 127 (1959) 182-186).
For the extraction of the residual histamine still contained in the mast cells of the undecanted material, the latter is mixed with 2 ml phosphate-buffered sodium chloride solution and the suspension is heated in a boiling water bath. Then centrifuging takes place, the supernatant fluid is decanted and therein the residual histamine extracted from the mast cells is determined spectrofluorimetrically.
For each sample, the quantity of the released histamine is calculated as percentage proportion of the overall quantity of histamine (=total of released histamine and residual histamine retained in the mast cells).
The EC50 values are calculated to be those molar concentrations of the test substances in the respective test solutions which produce a 50% inhibition of the histamine release compared to the control group.

[4] = tested on: histamine-induced anaphylactoidal reaction; test: Inhibition of histamine-induced anaphylactoid cutaneous reaction in the rat, test substance p.o.; format: in vivo, rat (Sprague-Dawley); conditions: po, 40 μg histamine intradermally, read-out: ED50 inhibiting effect, histamine-induced anaphylactoidal reaction
Method: as §1, §2, §3, §4
(§7) To trigger the histamine-induced and serotonin-induced anaphylactoid reactions of the skin, the animals are injected intradermally 30 minutes later on a second shaved part of the back with a solution of 40 μg histamine in 0.05 ml physiological sodium chloride solution and on a third shaved part of the back with a solution of 1 μg serotonin in 0.05 physiological sodium chloride solution.
as §5, §6

[5] = tested on: serotonin induced anaphylactoidal reaction; test: Inhibition of serotonin-induced anaphylactoid cutaneous reaction in the rat, test substance p.o.; format: in vivo, rat (Sprague-Dawley); conditions: po, 1 μg serotonin intradermally, read-out: ED50 inhibiting effect, serotonin induced anaphylactoidal reaction
Method: as §1, §2, §3, §4, §7, §5, §6

[6] = Acute 8-day toxicity, single i.p. application to male mice (LD50); conditions: in vivo, ip, mouse i.p., 8 days
Method: The acute 8-day toxicity is determined after a single application i.p. to male mice (body weight 18 to 22 g). The mortality is noted for 8 days. The results are calculated as LD50 values, i.e. the dose which kills 50% of the animals.

| SMILES | inhibition in vivo at 100 mg/kg [1] [%] | ED50 [2] [mg/kg] | EC50 [3] [µM] | ED50 [4] [mg/kg] | ED50 [5] [mg/kg] | LD50 at 192 h [6] [mg/kg] |
| --- | --- | --- | --- | --- | --- | --- |
| CCCc1cc(=O)n(CCCN2CCN(c3ccc(F)cc3)CC2)n1-c1ccccc1 [Example 12] | 49.5 | – | – | – | – | – |
| O=c1cc(C2CCCC2)n(-c2ccccc2)n1CCCN1CCN(c2ccc(F)cc2)CC1 [Example 63] | 42.2 | – | – | – | – | – |
| Cc1ccnc(N2CCN(CCCn3c(=O)cc(C4CCCC4)n3-c3ccccc3)CC2)c1 [Example 58] | – | 1.17 | 120 | 10 | 1.41 | 95 |
| CCc1cc(=O)n(CCCN2CCN(c3ccc(F)cc3)CC2)n1-c1ccc([N+](=O)[O-])cc1 [Example 54] | 45.6 | 4.45 | 120 | 5.46 | 0.52 | 53.3 |
| Cc1cc(=O)n(CCCN2CCN(c3ccc(F)cc3)CC2)n1-c1ccc(Cl)cc1 [Example 62] | 63.9 | 5.47 | 62 | 7.04 | 3.64 | – |
| Cc1ccnc(N2CCN(CCCn3c(=O)cc(C4CCCCC4)n3-c3ccccc3)CC2)c1 [Example 15] | – | 1.9 | 14 | 4.4 | 1.7 | 90 |
| CCOc1ccc(-n2c(C)cc(=O)n2CCCN2CCN(c3cc(Cl)ccc3C)CC2)cc1 [Example 30] | – | – | 18 | – | – | – |
| CCCc1cc(=O)n(CCCN2CCN(c3ccc(F)cc3)CC2)n1-c1ccc(Cl)c(Cl)c1 [Example 22] | – | – | 43 | – | – | – |
| COc1ccc(N2CCN(CCCn3c(=O)cc(C)n3-c3ccc(C)cc3Cl)CC2)cc1 [Example 20] | – | – | 10 | – | – | – |
| CCCCCCc1cc(=O)n(CCCN2CCN(c3cc(C)ccn3)CC2)n1-c1ccccc1 [Example 26] | – | 6.75 | 35 | 6.3 | 7.8 | 72.5 |
| CCc1cc(=O)n(CCCN2CCN(c3cc(C)ccn3)CC2)n1-c1ccc(Cl)cc1 [Example 23] | – | 7.85 | 140 | 4.7 | 5.8 | 168 |
| CC(=O)c1ccc(-n2c(C)cc(=O)n2CCCN2CCN(c3ccc(F)cc3)CC2)cc1 [Example 59] | 45.7 | – | – | – | – | – |
| Cc1ccnc(N2CCN(CCCn3c(=O)cc(C)n3-c3ccc(Cl)cc3)CC2)c1 [Example 18] | – | 4.7 | 230 | 6.6 | 6.2 | 205 |
| Cc1cc(=O)n(CCCN2CCN(c3ccc(F)cc3)CC2)n1-c1ccc([N+](=O)[O-])cc1 [Example 39] | 42.6 | 5.7 | – | 9.7 | 2.5 | 91.5 |
| Cc1cc(=O)n(CCCN2CCN(c3ccc(F)cc3)CC2)n1-c1ccccc1 [Example 8] | 56.4 | – | – | – | – | – |
| CCc1cc(=O)n(CCCN2CCN(c3ccc(F)cc3)CC2)n1-c1ccccc1 [Example 1, 5-ethyl-1-phenyl-2-{3-[4-(4-fluorophenyl)-piperazin-1-yl]-propyl}-pyrazolin-3-one] | 52.8 | 2.5 | 50 | 4.7 | 2.6 | 117 |
| O=c1cc(C2CCCCC2)n(-c2ccccc2)n1CCCN1CCN(c2ccc(F)cc2)CC1 [Example 49] | – | 4.9 | 57 | 10.6 | 3.59 | 96 |
| Cc1cc(=O)n(CCCN2CCN(c3ccc(F)cc3)CC2)n1-c1ccc(C#N)cc1 [Example 60] | 62.4 | 1.86 | 200 | 3.32 | 2.49 | 91.5 |
| COC(=O)c1ccccc1-n1c(C)cc(=O)n1CCCN1CCN(c2cc(C)ccn2)CC1 [Example 17] | – | 5 | – | 12.6 | 10.8 | 342 |
